The record followed here is patent US20260274814A1, “THIENYL COMPOUNDS FOR THE TREATMENT OF A CENTRAL NERVOUS SYSTEM DISEASE OR DISORDER” (Coreterra Therapeutics, Inc., priority 2023, published 2026).

Where a name gives a salt, the structure may show the parent alone. Read-outs that look alike come from different tables or passages of the source.

The test deals with mice. Description: Neuropharmacological Assay (SmartCube): automated behavioral signature of compound-treated mice compared with a database of reference drug classes. In kind it is in vivo. To be noted: for MED (minimal effective dose) / minimal effective dose / MED: i.p., that dose is shown; for AG / AN / CE / HL / MS / PS / SH / UK / AD / AP / AX: 3.0 mg/kg i.p., 15 min before test; for minimal effective dose: Mus musculus, ip. In short, it runs like this: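 Compounds in N-methyl-2-pyrrolidone/polyethylene glycol/propylene glycol were given i.p. 15 min before testing, at 3 doses; values shown are for 3.0 mg/kg. Video-captured behaviour was matched by algorithm against reference drug classes, giving a probability per class. MED: lowest dose reaching ≥45% total activity.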

[1] abbreviates: dose having 45% or more total activity in SmartCube, if only one dose was tested, hydrochloride.
Setting [2] is: probability that activity matches this class of agents.
Setting [3] is: probability that activity matches this class of agents, hydrochloride, 3 mg/kg.
[4] abbreviates: dose having 45% or more total activity in SmartCube, if only one dose was tested.
Where [5] appears, read: minimal effective dose: dose having 45% or more total activity in SmartCube, if only one dose tested, read-out: MED.
[6] abbreviates: SmartCube class probability, hydrochloride, 3 mg/kg.
[7] abbreviates: minimal effective dose: dose having 45% or more total activity in SmartCube, if only one dose tested.

Take `CNC1CCc2cc(F)sc2C1` (single isomer, unassigned) [Compound 80, 2-fluoro-N-methyl-4,5,6,7-tetrahydrobenzothiophen-6-amine hydrochloride]: under setting [1], the “MED (minimal effective dose)” value was 3 mpk. Besides, under setting [2], the AG entry is given as “ND (^ <4%)”, the AN result is reported as “ND (^ <4%)”, the CE result is reported as “ND (^ <4%)” and the HL result was “ND (^ <4%)”. Also, under setting [2], the MS result is recorded as “ND (^ <4%)”, the PS entry is on record as “ND (^ <4%)”, the SH entry was “ND (^ <4%)” and the UK result is “ND (^ <4%)”. For the same molecule, under setting [3], the AD entry was “++ (≥24%)”, the AP entry is recorded as “+ (≥4%)” and the AX entry is “+ (≥4%)”.
For the molecule `c1scc2c1CCC(NC1COC1)C2` (single isomer, unassigned) [Compound 129, N-(4,5,6,7-tetrahydro-2-benzothiophen-5-yl)oxetan-3-amine], the “MED (minimal effective dose)” value under setting [4] was 10 mpk. Also, under setting [2], the AD entry is “ND (^ <4%)” and the UK entry is recorded as “+ (≥4%)”.
Turning to `NC1CCc2scc(C(F)(F)F)c2C1` (stereo not drawn) [Compound 186, 3-(trifluoromethyl)-4,5,6,7-tetrahydrobenzothiophen-5-amine hydrochloride], the minimal effective dose under setting [5] was more than 3 mg/kg. Under “SmartCube class probability”, the AD entry is “ND (^ <4%)”, the AG entry is reported as “ND (^ <4%)”, the AN result is reported as “ND (^ <4%)” and the AP entry is listed as “ND (^ <4%)”. Also, for the setting “SmartCube class probability”, the AX result is “ND (^ <4%)”, the CE entry was “ND (^ <4%)”, the HL entry is recorded as “ND (^ <4%)” and the MS entry is listed as “ND (^ <4%)”. Besides, under “SmartCube class probability”, the PS result is listed as “ND (^ <4%)”, the SH entry is “ND (^ <4%)” and the UK result is recorded as “+ (≥4%)”.
Regarding `Cc1sc2c(c1C)CCC(N)C2` (single isomer, unassigned) [Compound 68, 2,3-dimethyl-4,5,6,7-tetrahydrobenzothiophen-6-amine hydrochloride], the “MED (minimal effective dose)” value under setting [4] came to 3 mpk. For the same molecule, under setting [2], the AG result was “ND (^ <4%)”, the AN entry is “ND (^ <4%)”, the AP entry is recorded as “ND (^ <4%)” and the AX result is “ND (^ <4%)”. For the same molecule, under setting [2], the CE result is on record as “ND (^ <4%)”, the MS entry was “ND (^ <4%)”, the PS result is “ND (^ <4%)” and the SH result is “ND (^ <4%)”. Moreover, under setting [2], the UK result is “ND (^ <4%)”. Besides, under setting [3], the AD result is on record as “++ (≥24%)” and the HL result was “+ (≥4%)”.
In the case of `CNC1COc2c(Cl)csc2C1` (stereo not drawn) [Compound 222, 3-chloro-N-methyl-6,7-dihydro-5H-thieno[3,2-b]pyran-6-amine hydrochloride], the minimal effective dose under setting [5] is less than 3 mg/kg. Where the note is “SmartCube class probability”, the AD result is “ND (^ <4%)”, the AG entry is listed as “ND (^ <4%)”, the AN result is reported as “ND (^ <4%)” and the AP entry is recorded as “++++ (≥74%)”. Under “SmartCube class probability”, the AX result is reported as “ND (^ <4%)”, the CE entry was “ND (^ <4%)”, the HL result is on record as “ND (^ <4%)” and the MS result is listed as “ND (^ <4%)”. In addition, where the note is “SmartCube class probability”, the PS result was “ND (^ <4%)”, the SH result is given as “ND (^ <4%)” and the UK result is “ND (^ <4%)”.
As for `CNC1CCc2sc(Cl)c(Cl)c2C1` (stereo not drawn) [Compound 220, 2,3-dichloro-N-methyl-4,5,6,7-tetrahydrobenzothiophen-5-amine hydrochloride], the minimal effective dose under setting [5] was more than 3 mg/kg. For the same molecule, where the note is “SmartCube class probability”, the AD result is reported as “ND (^ <4%)”, the AG entry is on record as “ND (^ <4%)”, the AN result was “ND (^ <4%)” and the AP entry is reported as “ND (^ <4%)”. Moreover, where the note is “SmartCube class probability”, the AX result is reported as “ND (^ <4%)”, the CE result was “ND (^ <4%)”, the HL result is on record as “ND (^ <4%)” and the MS entry is “ND (^ <4%)”. In addition, for the setting “SmartCube class probability”, the PS entry is recorded as “ND (^ <4%)”, the SH entry is “ND (^ <4%)” and the UK result is “++ (≥24%)”.
In the case of `CNC1CCc2c(sc(Cl)c2C)C1` (single isomer, unassigned) [Compound 147, 2-chloro-N, 3-dimethyl-4,5,6,7-tetrahydrobenzothiophen-6-amine hydrochloride], under setting [5], the minimal effective dose was 3 mg/kg. Also, where the note is “SmartCube class probability”, the AG entry is “ND (^ <4%)”, the CE entry is “ND (^ <4%)”, the MS entry was “ND (^ <4%)” and the PS entry is listed as “ND (^ <4%)”. In addition, where the note is “SmartCube class probability”, the SH entry was “ND (^ <4%)”. Moreover, under setting [6], the AD entry was “ND (^ <4%)”, the AN entry was “+ (≥4%)”, the AP result is given as “ND (^ <4%)” and the AX entry was “ND (^ <4%)”. Further, under setting [6], the HL result is reported as “+ (≥4%)” and the UK entry is reported as “+++ (≥49%)”.
On to `CNC1CCc2c(F)sc(C)c2C1` (single isomer, unassigned) [Compound 210, 1-fluoro-N, 3-dimethyl-4,5,6,7-tetrahydro-2-benzothiophen-5-amine hydrochloride], for which, under setting [5], the minimal effective dose is 3 mg/kg. In addition, for the setting “SmartCube class probability”, the AD entry was “ND (^ <4%)”, the AG entry is “ND (^ <4%)”, the AN entry was “ND (^ <4%)” and the AX result is given as “ND (^ <4%)”. In addition, under “SmartCube class probability”, the CE result is listed as “ND (^ <4%)”, the HL entry was “ND (^ <4%)”, the MS entry was “ND (^ <4%)” and the PS entry is on record as “ND (^ <4%)”. Further, where the note is “SmartCube class probability”, the SH result was “ND (^ <4%)”. Under setting [6], the AP entry is reported as “+ (≥4%)” and the UK entry is recorded as “+++ (≥49%)”.
As to `CNC1CCc2c(F)sc(F)c2C1` (single isomer, unassigned) [Compound 78, 1,3-difluoro-N-methyl-4,5,6,7-tetrahydro-2-benzothiophen-5-amine hydrochloride], under setting [1], the “MED (minimal effective dose)” value amounted to 1 mpk. Also, under setting [2], the AG entry is “ND (^ <4%)”, the AN result is on record as “ND (^ <4%)”, the AP result is listed as “++ (≥24%)” and the CE entry is “ND (^ <4%)”. Moreover, under setting [2], the HL result is “ND (^ <4%)”, the MS entry was “ND (^ <4%)”, the PS result is recorded as “ND (^ <4%)” and the SH result was “ND (^ <4%)”. In addition, under setting [3], the AD entry is reported as “ND (^ <4%)”, the AX entry is reported as “++ (≥24%)” and the UK entry is on record as “+ (≥4%)”.
As for `CNC1CCc2sc(C3CC3)cc2C1` (single isomer, unassigned) [Compound 184, 2-cyclopropyl-N-methyl-4,5,6,7-tetrahydrobenzothiophen-5-amine hydrochloride], where the note is “SmartCube class probability”, the AD entry is given as “ND (^ <4%)”, the AG entry was “ND (^ <4%)”, the AN entry is recorded as “ND (^ <4%)” and the AP result is recorded as “ND (^ <4%)”. Under “SmartCube class probability”, the AX result is listed as “ND (^ <4%)”, the CE result was “ND (^ <4%)”, the HL entry is reported as “ND (^ <4%)” and the MS result is reported as “ND (^ <4%)”. Where the note is “SmartCube class probability”, the PS result was “ND (^ <4%)”, the SH entry is listed as “ND (^ <4%)” and the UK entry is reported as “++ (≥24%)”. Further, the MED (minimal effective dose: dose having 45% or more total activity in SmartCube, if only one dose tested, hydrochloride) was more than 3 mpk.
Regarding `CNC1CCc2cc(F)sc2C1` (racemic) [Compound 79, 2-fluoro-N-methyl-4,5,6,7-tetrahydrobenzothiophen-6-amine hydrochloride], the minimal effective dose (dose having 45% or more total activity in SmartCube, if only one dose was tested, read-out: MED (minimal effective dose)) stood at 1 mg/kg. For the same molecule, under setting [2], the AD result is “++ (≥24%)”, the AG entry is listed as “ND (^ <4%)”, the AN result is “ND (^ <4%)” and the AP entry is listed as “+ (≥4%)”. Under setting [2], the AX result is recorded as “++ (≥24%)”, the CE entry is recorded as “ND (^ <4%)”, the HL entry was “ND (^ <4%)” and the MS result is reported as “ND (^ <4%)”. Also, under setting [2], the PS result is “ND (^ <4%)”, the SH entry is “ND (^ <4%)” and the UK entry is “ND (^ <4%)”.
Take `c1scc2c1CCC(NC1CCC1)C2` (single isomer, unassigned) [Compound 161, N-cyclobutyl-4,5,6,7-tetrahydro-2-benzothiophen-5-amine hydrochloride]: where the note is “SmartCube class probability”, the AD result is “ND (^ <4%)”, the AG entry is recorded as “ND (^ <4%)”, the AN entry is given as “ND (^ <4%)” and the AP result was “ND (^ <4%)”. In addition, where the note is “SmartCube class probability”, the AX result is on record as “ND (^ <4%)”, the CE result is reported as “ND (^ <4%)”, the HL result is recorded as “ND (^ <4%)” and the MS entry is listed as “ND (^ <4%)”. For the setting “SmartCube class probability”, the PS result is listed as “ND (^ <4%)” and the SH result is recorded as “ND (^ <4%)”. For the same molecule, the UK entry under setting [6] is reported as “ND (^ <4%)”. In addition, under setting [7], the MED is more than 3 mpk.
Regarding `NC1CCc2scc(C3CC3)c2C1` (single isomer, unassigned) [Compound 278, 3-cyclopropyl-4,5,6,7-tetrahydrobenzothiophen-5-amine hydrochloride], under “SmartCube class probability”, the AD entry is listed as “ND (^ <4%)” and the UK result is on record as “+ (≥4%)”. Further, the MED under setting [7] is more than 3 mpk.
